Measured values taken from US20100093985A1, “USE OF AT LEAST ONE CYTOSOLIC PHOSPHOLIPASE A2 INHIBITOR AS A MEDICINE FOR SYMPTOMATIC TREATMENT OF MUCOVISCIDOSIS” (INSTITUT PASTEUR, priority 2006, published 2010).

System: CFTR+/+ and CFTR−/− mice
Assay: Production of mucus in the airways of mice (alcian blue score), with or without LPS from P. aeruginosa
Type: in vivo, mouse
Conditions: for Average Score (production of mucus in the airways): D4
Description: The studies were carried out on a cystic fibrosis model established in C57BL/6J mice (Cftr^tmUNC mice) kept on a mixed gene pool by the “Centre de Distribution, de Typage et d'Archivage Animal” UPS44 CNRS in Orléans. Wild-type CFTR^+/+ and mutant CFTR^−/− mice were weaned at 3-4 weeks and fed with food supplemented with a commercial laxative, Movicol®. Without laxative CFTR^−/− mice die rapidly after weaning due to bowel obstructions resulting from a change in the secretion of fluids in the digestive tract.
The experiments were conducted on groups of at least 5 mice aged 5-7 weeks for each category of treatment.
The products used were dissolved in an injectable saline solution (or physiological saline) and injected by intratracheal (i.t.) or intraperitoneal (i.p.) route.
The use protocol was as follows:
1) Aspirin (50 mg/kg, i.p.), 30 minutes before LPS, then each day, once a day;
2) ATK (20 mg/kg, i.p.), 30 minutes before LPS and 24 hours after.
The mice were anesthetized with 2% xylazine (8 mg/kg) and ketamine 1000 (40 mg/kg) before the infusion of LPS (330 μg/kg, i.t.).
Bronchoalveolar lavages (BALs) and lung samplings were carried out 4 days after the infusion of LPS, as indicated below:
The lungs were infused with 4% formaldehyde to remove the blood and immersed in 4% formaldehyde for 48 hours at 4° C. before being added to paraffin.
Sections 5 μm thick were stained with hemotoxylin/eosin, periodic acid-Schiff (PAS) and alcian blue (AB; pH 2.4) according to standard methods (Histologie Normale et Pathologique. P. GANTER & G. Jolies, Gauthier-Villars).
After microscopic examination of the sections stained with alcian blue, which colours the mucus, the positive bronchi and cells were counted. The “number of positive bronchi/number of positive cells” ratio makes it possible to establish the score which serves to evaluate the results of the mucus production studies (see below).

CC(=O)Oc1ccccc1C(=O)O [asp, aspirin]
Average Score (production of mucus in the airways) (CFTR+/+ mice, LPS 330 μg/kg i.t. + aspirin 50 mg/kg i.p.): 0
Average Score (production of mucus in the airways) (CFTR+/+ mice, control (physiological saline, no LPS) + aspirin 50 mg/kg i.p.): 0.25
secretion of mucus (CFTR−/− mice stimulated by infusion with LPS of Pseudomonas aeruginosa): inhibited
Average Score (production of mucus in the airways) (CFTR−/− mice, LPS 330 μg/kg i.t. + aspirin 50 mg/kg i.p.): 0
Average Score (production of mucus in the airways) (CFTR−/− mice, control (physiological saline, no LPS) + aspirin 50 mg/kg i.p.): 0.50
